From patent US20240425529A1, “BORIC ACID DERIVATIVE” (SHOUYAO HOLDINGS (BEIJING) CO., LTD., priority 2021, published 2024)

How the values were obtained:
[1] = system: multiple myeloma cells MM. 1S; experiment: In-vivo assay I: subcutaneous xenograft model of multiple myeloma cells MM. 1S in mice; details: MM. 1S xenograft, NOD/SCID mice; for animal death or weight loss caused by the compound: 2 mg/kg orally once daily for 14 days; for T/C / TGI (tumor growth inhibition rate): 2 mg/kg orally once daily, Day 14
Experimental: Evaluation assay of LMP7 inhibitors in a subcutaneous xenograft model of multiple myeloma cells MM. 1S in mice
Female NOD/SCID mice, week old: 5-6 weeks old, certificate No: SCXK(Jing) 2021-0006, purchased from Beijing Vital River Experimental Animal Technology Co. Ltd.
(§1) The specific method was that mice were housed in an SPF environment. Every 5 mice were housed in 1 cage. Animals were free to drink and eat and were adaptively raised for one week. Laboratory conditions: room temperature 18-24° C., relative humidity 40%-70%, ventilated with a ventilation fan, natural light source for 12 hours per day. Cages, bedding, drinking water, and feed were replaced twice a week, and the replaced cages and drinking water bottles were cleaned and then sterilized by steam under high pressure. Cages, room walls, and floors were cleaned twice a week with 84-disinfectant or bromogeramine.
MM. 1S (Cell Resource Center, Institute of Basic Medical Sciences, Chinese Academy of Medical Sciences) cells were cultured using RPMI-1640 medium supplemented with 20% fetal bovine serum and 1% Penicillin-Streptomycin at 37° C. in an atmosphere of 5% CO2 in air. Cells were routinely sub-cultured twice weekly, and cells grown in the exponential growth phase were harvested and counted. Cell suspensions were mixed well in 30% Matrigel™ (Corning Matrigel™ High Concentration Basement Membrane) for tumor cell inoculation.
Mice were pretreated with cyclophosphamide via intraperitoneal injection for 3 days, and each mouse was subcutaneously injected with 0.1 mL of PBS-suspended MM. 1S cell suspension (containing 1.0×10^7 cells, 30% Matrigel) at the axillary sites on both sides to establish a subcutaneous transplanted tumor model of multiple myeloma cells MM. 1S in mice. When the tumor size reached 400-700 mm^3, the tumor mass was collected aseptically and cryopreserved for future use. The MM. 1S tumor mass was revived, and the tumor mass was aseptically collected for 2 generations for an in-vivo efficacy evaluation assay. When the average tumor volume was about 100-150 mm^3, 20 tumor-bearing mice with a relatively regular shape and uniform size were selected for the experiment. They were divided into 4 groups, with 5 animals in each group. The first group of the model group was orally administered with the vehicle once daily; the second group was orally administered with Example 9 (2 mg/kg) once daily; the third group was orally administered with Example 67 (2 mg/kg) once daily; the fourth group was orally administered Example 73 (2 mg/kg) once daily. Administration was started on the day of grouping and continued for 14 days. Tumor diameter and body weight were measured 3 times per week during the experiment. At the end of the experiment, intraocular canthus blood was collected and mice were sacrificed immediately after blood collection to collect tumor tissue.
The study endpoints were tumor growth inhibition, maximum tumor burden (individual tumor size equal to 10% of body weight), and weight loss greater than 20% of body weight at the start of treatment. The tumor volume was calculated as V=0.5×a×b^2, where V is the tumor volume and a and b are the length and width of the tumor, respectively. The tumor growth inhibition rate was calculated as TGI (%)=(1-(tumor volume of treatment group-tumor volume of treatment group at grouping)/(tumor volume of control group-tumor volume of control group at grouping))*100%. Complete tumor regression (CR) is defined as a tumor that is reduced to below the palpation limit (mm^3). Partial tumor regression (PR) is defined as a tumor that is reduced by at least half compared to the initial tumor volume. The minimum duration of CR or PR in three or more consecutive tumor measurements is required to consider CR or PR as persistent. […]

[2] = system: multiple myeloma cells U266B1; experiment: In-vivo assay II: subcutaneous xenograft model of multiple myeloma cells U266B1 in mice; details: NOG mice
Experimental: Evaluation assay of LMP7 Inhibitors in a subcutaneous xenograft model of multiple myeloma cells U266B1 in mice
Female NOG mice, week old: 6-8 weeks old, certificate No: SCXK(Jing) 2021-0006, purchased from Beijing Vital River Experimental Animal Technology Co. Ltd.
as §1
U266b1 (China Center for Type Culture Collection, College of Life Sciences at Wuhan University) cells were cultured using RPMI-1640 medium supplemented with 20% fetal bovine serum and 1% Penicillin-Streptomycin at 37° C. in an atmosphere of 5% CO2 in the air. Cells were routinely sub-cultured twice weekly, and cells grown in the exponential growth phase were harvested and counted. Cell suspensions were mixed well at 1:1 in Matrigel™ (Corning Matrigel™ Normal Basement Membrane) for tumor cell inoculation.
Each mouse was subcutaneously injected with 0.1 ml of PBS-suspended U266B1 cell suspension (containing 1.0×10^7 cells, 50% Matrigel) at the axillary sites on both sides to establish a subcutaneous transplanted tumor model of multiple myeloma cells U266B1 in mice. […] Tumor diameter and body weight were measured 3 times per week during the experiment. […]
The study endpoints were tumor growth inhibition, maximum tumor burden (individual tumor size equal to 10% of body weight), and weight loss greater than 20% of body weight at the start of treatment. The tumor volume was calculated as V=0.5×a×b^2, where V is the tumor volume and a and b are the length and width of the tumor, respectively. […]

[3] = 0.3 mg/kg orally once daily, Day 14

SMILES | animal death or weight loss caused by the compound [1] | T/C [1] [%] | TGI (tumor growth inhibition rate) [1] [%] | animal death or weight loss caused by the compound ([2]; 0.3 mg/kg orally once daily for 14 days) | T/C [2, 3] [%] | TGI (tumor growth inhibition rate) [2, 3] [%]
O=C(Nc1cnccn1)C(=O)N[C@@H](Cc1coc2ccccc12)B(O)O [Ex. 9, (R)-(2-(benzofuran-3-yl)-1-(2-oxo-2-(pyrazin-2-ylamino)acetamido)ethyl) boronic acid] | no animal death or weight loss | 0.88 | 112.28 | no animal death or weight loss | 9.76 | 104.45
CC1CC(C)(C)OB([C@H](Cc2coc3ccccc23)NC(=O)C(=O)Nc2cnccn2)O1 (stereo partly drawn) [Ex. 67] | no animal death or weight loss | 1.57 | 112.06 |  |  | 
O=C1COB([C@H](Cc2coc3ccccc23)NC(=O)C(=O)Nc2cnccn2)O1 [Ex. 73] | no animal death or weight loss | 0.53 | 112.56 |  |  | 
